From paper PMC8048867 (Chemmedchem, 2020) come the findings set out here.

Values joined by “and” are separate entries in the source; they are usually repeats but may differ in a detail not shown here. Equal values may be shown once.

In general, Ki refers to the dissociation constant of the complex between target and ligand, obtained from inhibition or displacement. For orientation: viability means a per cent measure of how many cells are alive, often set against a control. Low values mean more harm to the cells, high ones less harm to the cells.

Data set [1] addresses T1, recombinant human meprin α (Homo sapiens, UniProt Q16819).
T1 sequence (Q16819 66-746): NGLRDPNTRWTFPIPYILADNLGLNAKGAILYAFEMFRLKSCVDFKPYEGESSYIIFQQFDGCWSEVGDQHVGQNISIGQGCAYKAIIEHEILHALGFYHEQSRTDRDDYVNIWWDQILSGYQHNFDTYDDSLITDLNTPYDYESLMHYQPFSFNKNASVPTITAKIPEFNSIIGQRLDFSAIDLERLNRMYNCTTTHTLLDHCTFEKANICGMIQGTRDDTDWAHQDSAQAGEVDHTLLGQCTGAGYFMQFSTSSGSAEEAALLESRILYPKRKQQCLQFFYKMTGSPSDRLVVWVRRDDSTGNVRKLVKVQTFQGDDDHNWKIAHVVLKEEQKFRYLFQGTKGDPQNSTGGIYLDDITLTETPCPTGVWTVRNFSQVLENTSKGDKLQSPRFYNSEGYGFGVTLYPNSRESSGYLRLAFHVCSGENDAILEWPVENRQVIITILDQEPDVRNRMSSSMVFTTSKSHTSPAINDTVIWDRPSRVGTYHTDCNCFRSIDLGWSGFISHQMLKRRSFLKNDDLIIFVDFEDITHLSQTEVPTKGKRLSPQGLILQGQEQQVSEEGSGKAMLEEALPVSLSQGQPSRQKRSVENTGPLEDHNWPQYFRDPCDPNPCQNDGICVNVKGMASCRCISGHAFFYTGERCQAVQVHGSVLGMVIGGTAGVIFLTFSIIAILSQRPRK
Briefly: meprin α inhibition, quenched fluorogenic peptide substrate assay. It is filed as biochemical. The conditions noted are these: for SF: selectivity factor (K i app meprin β/K i app meprin α): meprin α over meprin β.

Data set [2] has as its target T2, recombinant human meprin β (Homo sapiens, UniProt Q16820).
T2 sequence (Q16820 62-701): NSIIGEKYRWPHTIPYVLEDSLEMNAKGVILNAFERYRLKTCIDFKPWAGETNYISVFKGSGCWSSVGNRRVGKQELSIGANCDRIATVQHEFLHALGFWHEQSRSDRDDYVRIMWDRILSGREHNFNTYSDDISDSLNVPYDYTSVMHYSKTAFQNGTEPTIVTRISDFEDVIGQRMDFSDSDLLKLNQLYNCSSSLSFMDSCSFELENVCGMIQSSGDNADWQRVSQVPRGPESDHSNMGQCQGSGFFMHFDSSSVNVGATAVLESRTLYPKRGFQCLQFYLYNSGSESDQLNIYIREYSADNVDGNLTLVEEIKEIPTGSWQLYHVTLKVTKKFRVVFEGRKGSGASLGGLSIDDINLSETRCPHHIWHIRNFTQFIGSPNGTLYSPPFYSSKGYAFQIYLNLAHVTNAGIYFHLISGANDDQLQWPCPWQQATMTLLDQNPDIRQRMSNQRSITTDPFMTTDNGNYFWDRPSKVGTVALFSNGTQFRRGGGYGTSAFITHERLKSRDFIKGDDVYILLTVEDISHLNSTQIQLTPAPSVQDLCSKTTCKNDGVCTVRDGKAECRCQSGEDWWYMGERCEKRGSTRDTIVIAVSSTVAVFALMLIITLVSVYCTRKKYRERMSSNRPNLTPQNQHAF
The data set is described as follows: meprin β inhibition, quenched fluorogenic peptide substrate assay. It is filed as biochemical.

Data set [3] has as its target T3, MMP2 (Homo sapiens, UniProt P08253).
T3 sequence (P08253 110-660): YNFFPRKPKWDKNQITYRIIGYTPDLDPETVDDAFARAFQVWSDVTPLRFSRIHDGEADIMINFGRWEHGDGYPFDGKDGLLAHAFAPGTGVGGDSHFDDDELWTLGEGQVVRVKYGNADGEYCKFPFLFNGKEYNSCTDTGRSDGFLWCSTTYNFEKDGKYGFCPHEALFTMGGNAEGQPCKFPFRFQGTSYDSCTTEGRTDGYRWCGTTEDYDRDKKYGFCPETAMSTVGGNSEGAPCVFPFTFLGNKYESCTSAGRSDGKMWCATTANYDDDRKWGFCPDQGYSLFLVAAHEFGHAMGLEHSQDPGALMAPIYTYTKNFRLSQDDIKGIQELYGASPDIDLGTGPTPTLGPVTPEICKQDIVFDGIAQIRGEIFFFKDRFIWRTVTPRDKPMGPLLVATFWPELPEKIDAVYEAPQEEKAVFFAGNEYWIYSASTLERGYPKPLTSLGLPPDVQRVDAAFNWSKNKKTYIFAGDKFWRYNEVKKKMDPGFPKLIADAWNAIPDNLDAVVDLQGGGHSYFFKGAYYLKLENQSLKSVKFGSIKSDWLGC
Briefly: off-target proteinase inhibition MMP2. The conditions noted are these: read-out: Relative enzyme activity MMP2. It counts as biochemical.

Data set [4] addresses MMP9 (Homo sapiens, UniProt P14780). Briefly: off-target proteinase inhibition MMP9. It counts as biochemical. To be noted: read-out: Relative enzyme activity MMP9.
For data set [5], the target named is MMP13 (Homo sapiens, UniProt P45452). Briefly: off-target proteinase inhibition MMP13. To be noted: read-out: Relative enzyme activity MMP13. It is filed as biochemical.
The target of data set [6] is T4, ADAM10 (Homo sapiens, UniProt O14672).
T4 sequence (O14672 214-748): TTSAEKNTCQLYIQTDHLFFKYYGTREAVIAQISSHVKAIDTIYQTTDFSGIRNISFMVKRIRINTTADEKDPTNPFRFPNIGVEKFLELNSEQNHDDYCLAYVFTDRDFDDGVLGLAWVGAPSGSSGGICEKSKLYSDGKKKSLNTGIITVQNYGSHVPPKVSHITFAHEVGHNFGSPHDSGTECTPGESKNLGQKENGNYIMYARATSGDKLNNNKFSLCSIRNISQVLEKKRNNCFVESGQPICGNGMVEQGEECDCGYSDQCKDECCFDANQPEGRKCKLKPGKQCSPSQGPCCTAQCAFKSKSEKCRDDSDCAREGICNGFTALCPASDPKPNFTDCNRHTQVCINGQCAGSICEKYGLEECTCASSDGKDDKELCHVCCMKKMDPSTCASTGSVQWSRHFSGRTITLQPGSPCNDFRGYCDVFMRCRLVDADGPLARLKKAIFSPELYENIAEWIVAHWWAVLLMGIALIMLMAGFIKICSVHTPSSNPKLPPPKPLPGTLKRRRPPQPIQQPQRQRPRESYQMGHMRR
The data set is described as follows: off-target proteinase inhibition ADAM10. It is filed as biochemical. The conditions noted are these: read-out: Relative enzyme activity ADAM10.

Data set [7] deals with ADAM17 (Homo sapiens, UniProt P78536). The data set is described as follows: off-target proteinase inhibition ADAM17. It is filed as biochemical. To be noted: read-out: Relative enzyme activity ADAM17.
Data set [8] is described as follows: cell-viability assay. It counts as cell-based. The conditions noted are these: human, Hep-G2 cells.
Data set [9] in a line: cell-viability assay. It counts as cell-based. The conditions noted are these: human, SH-SY5Y cells.
Data set [10] has as its target T5, mouse ovastacin (Mus musculus, UniProt Q6HA09).
T5 sequence (Q6HA09 86-435 limits assumed): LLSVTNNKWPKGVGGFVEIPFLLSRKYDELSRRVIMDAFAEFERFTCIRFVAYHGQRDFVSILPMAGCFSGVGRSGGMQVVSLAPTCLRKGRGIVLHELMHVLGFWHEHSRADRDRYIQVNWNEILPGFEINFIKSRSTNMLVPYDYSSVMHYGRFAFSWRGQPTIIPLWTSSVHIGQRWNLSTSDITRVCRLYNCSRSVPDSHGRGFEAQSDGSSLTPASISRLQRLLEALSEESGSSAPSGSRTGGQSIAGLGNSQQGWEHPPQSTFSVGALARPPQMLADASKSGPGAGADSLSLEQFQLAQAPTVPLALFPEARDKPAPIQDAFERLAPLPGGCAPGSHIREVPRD
The data set is described as follows: ovastacin inhibition, fluorogenic enzyme activity assay.

MMP9, sequence (P14780 107-707 limits assumed): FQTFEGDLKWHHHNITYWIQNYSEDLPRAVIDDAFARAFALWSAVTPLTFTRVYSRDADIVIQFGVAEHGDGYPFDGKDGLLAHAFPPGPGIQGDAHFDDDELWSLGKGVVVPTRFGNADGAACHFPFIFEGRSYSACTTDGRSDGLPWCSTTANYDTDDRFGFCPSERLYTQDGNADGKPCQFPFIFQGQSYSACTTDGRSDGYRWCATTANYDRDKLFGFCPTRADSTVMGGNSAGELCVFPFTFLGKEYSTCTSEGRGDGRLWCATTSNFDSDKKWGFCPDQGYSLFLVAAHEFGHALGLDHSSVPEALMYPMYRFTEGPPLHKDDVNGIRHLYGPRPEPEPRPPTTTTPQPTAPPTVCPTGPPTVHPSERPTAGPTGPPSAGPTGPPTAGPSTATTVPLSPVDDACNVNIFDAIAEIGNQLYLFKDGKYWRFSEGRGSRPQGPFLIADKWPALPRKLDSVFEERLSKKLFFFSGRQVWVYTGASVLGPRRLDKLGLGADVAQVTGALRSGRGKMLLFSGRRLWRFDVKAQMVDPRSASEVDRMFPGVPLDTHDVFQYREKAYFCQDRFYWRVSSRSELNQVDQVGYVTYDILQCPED
ADAM17, sequence (P78536 215-824): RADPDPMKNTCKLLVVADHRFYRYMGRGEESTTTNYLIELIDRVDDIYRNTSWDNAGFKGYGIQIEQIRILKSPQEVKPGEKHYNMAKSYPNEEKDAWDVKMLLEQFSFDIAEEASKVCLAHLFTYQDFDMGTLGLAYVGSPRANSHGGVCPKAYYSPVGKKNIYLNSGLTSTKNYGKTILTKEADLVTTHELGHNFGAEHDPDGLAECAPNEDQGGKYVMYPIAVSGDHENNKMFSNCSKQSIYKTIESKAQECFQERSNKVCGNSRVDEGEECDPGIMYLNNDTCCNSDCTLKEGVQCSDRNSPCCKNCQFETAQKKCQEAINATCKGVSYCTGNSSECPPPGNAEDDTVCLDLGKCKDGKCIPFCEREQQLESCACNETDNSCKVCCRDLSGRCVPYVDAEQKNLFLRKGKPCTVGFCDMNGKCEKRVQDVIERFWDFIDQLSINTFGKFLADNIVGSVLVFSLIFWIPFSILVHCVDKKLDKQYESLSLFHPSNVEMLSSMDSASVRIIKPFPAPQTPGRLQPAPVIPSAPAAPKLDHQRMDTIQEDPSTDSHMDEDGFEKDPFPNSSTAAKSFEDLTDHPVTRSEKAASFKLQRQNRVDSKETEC

Regarding `O=C(Cc1c(-c2ccccc2)noc1-c1ccccc1)NO` [2 c, 2‐(3,5‐Diphenylisoxazol‐4‐yl)ethanehydroxamic acid], the “fold improvement in potency against meprin α compared to amine 1 d” value in data set [1] (compared to 1 d) is 2000 fold. For the same molecule, the “fold increase in activity against meprin α compared to 2 a” value in [1] (compared to pyrrole 2 a) amounted to 5 fold. In addition, in [1], the “SF: selectivity factor (K i app meprin β/K i app meprin α)” value was 200 and 203. The Ki in [2] was 813 nM; in data set [10], 66 nM. Besides, the “fold increase in activity against meprin β compared to 2 a” value in data set [2] (compared to pyrrole 2 a) is 5 fold. Also, the remaining activity at 10 µM is 87% in data set [3]; 86% in data set [4]; 80% in [5]; 80% in [6]; 62% in data set [7]. Besides, the remaining activity at 200 µM in [3] is 34%; in data set [4] it was 16%; in [5], 31%; in data set [6], 22%; in data set [7] it was 9%. For the same molecule, the viability at 24 h, 30 µM in [8] was 85%; in data set [9], 96%. Further, the “SF Meprin α: selectivity factor (K i app ovastacin/K i app meprin α)” value in [10] is 17. Besides, the “SF Meprin β: selectivity factor (K i app ovastacin/K i app meprin β)” value in data set [10] is on record as 0.1.
Take `O=C(Cn1c(-c2ccccc2)nnc1-c1ccccc1)NO` [2 g, 2‐(3,5‐Diphenyl‐1,2,4‐triazol‐4‐yl)ethanehydroxamic acid]: the inhibitory constant (Ki) stood at 66 nM in data set [1], 8680 nM in data set [2] and 4880 nM in data set [10]. In addition, the “SF: selectivity factor (K i app meprin β/K i app meprin α)” value in [1] is 132. Further, the remaining activity at 10 µM turned out to be 95% in data set [3]; 99% in data set [4]; 93% in data set [5]; 89% in data set [6]; 90% in data set [7]. For the same molecule, the remaining activity at 200 µM in data set [3] worked out at 70%; in data set [4] it was 54%; in data set [5], 76%; in data set [6], 83%; in data set [7], 56%. The viability at 24 h, 30 µM in [8] was 94%; in data set [9] it was 99%. For the same molecule, the “SF Meprin α: selectivity factor (K i app ovastacin/K i app meprin α)” value in data set [10] worked out at 74. Further, in data set [10], the “SF Meprin β: selectivity factor (K i app ovastacin/K i app meprin β)” value was 0.6.
